Assay results taken from patent publication US8147872B2, “Pharmaceutical compositions of drugs and neutralized acidic polymers” (Bend Reseach, Inc., priority 2001, dated 2012).

Legend:
[1] = In vitro dissolution test of Drug 2 compositions in PBS pH 6.5 (microcentrifuge method, HPLC); format: physicochemical; parameters: AUC90: tested at 2000 µg/mL
Protocol: (§1) For this test, 14.4 mg of the dispersion was added to a microcentrifuge tube for a total Drug 2 concentration of approximately 2000 μg/mL if all of the drug were to dissolve completely. The tube was placed in a 37° C. temperature-controlled chamber, and 1.8 mL PBS as pH 6.5 and 290 mOsm/kg was added. The samples were quickly mixed using a vortex mixer for about 60 seconds. The samples were centrifuged at 13,000 G at 37° C. for 1 minute. The resulting supernatant solution was then sampled and diluted 1:6 (by volume) with methanol and then analyzed by high-performance liquid chromatography (HPLC). The contents of the tubes were mixed on the vortex mixer and allowed to stand undisturbed at 37° C. until the next sample was taken. Samples were collected at 4, 10, 20, 40, 90, and 1200 minutes.
For comparison, a Control C4 consisting of 3.6 mg of crystalline Drug 2 was added to PBS for a total concentration of 2000 μg/mL.
For this test, 14.4 mg of the dispersion was added to a microcentrifuge tube for a total Drug 2 concentration of approximately 2000 μg/mL if all of the drug were to dissolve completely. The dissolution test was performed as described in Example 9. Control C4 (consisting of 3.6 mg of crystalline Drug 2) is shown again for comparison.

[2] = In vitro dissolution test of Drug 3 compositions in PBS with 0.5 wt % NaTC/POPC; format: physicochemical; conditions: for Drug 3 Concentration: approx. 200 μg/mL if all dissolved
Protocol: as §1
For these tests, 1.44 mg of each dispersion was added to a microcentrifuge tube containing PBS with 0.5 wt % sodium taurocholic acid and 1-palmitoyl-2-oleyl-sn-glycero-3-phosphocholine (“NaTC/POPC,” with a 4/1 weight ratio), for a total Drug 3 concentration of approximately 200 μg/mL if all of the drug were to dissolve completely. For Controls C5, C6, and C7 (with Drug 3B), 1.57 mg of each dispersion was added to PBS containing 0.5 wt % NaTC/POPC to yield approximately 200 μg/mL of active Drug 3. Control C8 consisted of 0.36 mg of crystalline Drug 3A. The dissolution tests were performed as described in Example 9.

O=C(N[C@@H](Cc1ccccc1)[C@@H](O)C(=O)N1C[C@@H](O)[C@@H](O)C1)c1cc2cc(Cl)ccc2[nH]1 [Example C4, 5-chloro-1H-indole-2-carboxylic acid[(1S)-benzyl-3-((3R,4S)-dihydroxypyrrolidin-1-yl)-(2R)-hydroxy-3-oxypropyl]amide]
AUC90 ([1]; Drug 2, PBS pH 6.5, 37° C.): 10,300 min * μg/mL | Cmax90 ([1]; Drug 2, PBS pH 6.5, 37° C.): 131 µg/mL | AUC ([1]; Table 4, time 0 min, PBS pH 6.5, 37° C.): 0 µg·h/mL | AUC ([1]; Table 4, time 4 min, PBS pH 6.5, 37° C.): 5 µg·h/mL | AUC ([1]; Table 4, time 10 min, PBS pH 6.5, 37° C.): 16.7 µg·h/mL | AUC ([1]; Table 4, time 20 min, PBS pH 6.5, 37° C.): 36.7 µg·h/mL | AUC ([1]; Table 4, time 40 min, PBS pH 6.5, 37° C.): 75 µg·h/mL | AUC ([1]; Table 4, time 90 min, PBS pH 6.5, 37° C.): 172 µg·h/mL | AUC ([1]; Table 4, time 1200 min, PBS pH 6.5, 37° C.): 2000 µg·h/mL | AUC ([1]; Table 5, AUC90 according to the text, PBS pH 6.5): 172 µg·h/mL | Drug 2 Concentration ([1]; Table 5, Cmax90 according to the text, PBS pH 6.5): 131 µg/mL | AUC ([1]; time 0 min, PBS pH 6.5, 37° C.): 0 µg·h/mL | Drug 2 Concentration ([1]; time 0 min, PBS pH 6.5, 37° C., approx. 2000 μg/mL if all dissolved): 0 µg/mL | AUC ([1]; time 4 min, PBS pH 6.5, 37° C.): 5 µg·h/mL | Drug 2 Concentration ([1]; time 4 min, PBS pH 6.5, 37° C., approx. 2000 μg/mL if all dissolved): 131 µg/mL | AUC ([1]; time 10 min, PBS pH 6.5, 37° C.): 1,000 min * μg/mL | Drug 2 Concentration ([1]; time 10 min, PBS pH 6.5, 37° C., approx. 2000 μg/mL if all dissolved): 114 µg/mL | AUC ([1]; time 20 min, PBS pH 6.5, 37° C.): 2,200 min * μg/mL | Drug 2 Concentration ([1]; time 20 min, PBS pH 6.5, 37° C., approx. 2000 μg/mL if all dissolved): 124 µg/mL | AUC ([1]; time 40 min, PBS pH 6.5, 37° C.): 4,500 min * μg/mL | Drug 2 Concentration ([1]; time 40 min, PBS pH 6.5, 37° C., approx. 2000 μg/mL if all dissolved): 107 µg/mL | AUC ([1]; time 90 min, PBS pH 6.5, 37° C.): 10,300 min * μg/mL | Drug 2 Concentration ([1]; time 90 min, PBS pH 6.5, 37° C., approx. 2000 μg/mL if all dissolved): 126 µg/mL | AUC ([1]; time 1200 min, PBS pH 6.5, 37° C.): 120,200 min * μg/mL | Drug 2 Concentration ([1]; time 1200 min, PBS pH 6.5, 37° C., approx. 2000 μg/mL if all dissolved): 72 µg/mL

O=C1Cc2cc(CCN3CCN(c4nsc5ccccc45)CC3)c(Cl)cc2N1 [Example C8, ziprazidone]
Cmax90 ([2]; Drug 3): 2 µg/mL | AUC ([2]; Drug 3, time 0 min): 0 µg·min/mL | AUC ([2]; Drug 3, time 4 min): 0 µg·min/mL | AUC ([2]; Drug 3, time 10 min): 0 µg·min/mL | AUC ([2]; Drug 3, time 20 min): 0 µg·min/mL | AUC ([2]; Drug 3, time 40 min): 0 µg·min/mL | AUC ([2]; Drug 3, time 90 min): 100 µg·min/mL | AUC ([2]; Drug 3, time 1200 min): 1,800 min * μg/mL | AUC ([2]; Table 9, AUC90 according to the text, Drug 3): 100 µg·min/mL | Drug 3 Concentration ([2]; time 0 min): 0 µg/mL | Drug 3 Concentration ([2]; time 4 min): 1 µg/mL | Drug 3 Concentration ([2]; time 10 min): 1 µg/mL | Drug 3 Concentration ([2]; time 20 min): 1 µg/mL | Drug 3 Concentration ([2]; time 40 min): 2 µg/mL | Drug 3 Concentration ([2]; time 90 min): 1 µg/mL | Drug 3 Concentration ([2]; time 1200 min): 2 µg/mL
